The values that follow come from US20170233413A1, “SUBSTITUTED ANNULATED PYRIMIDINES AND USE THEREOF” (Bayer Pharma Aktiengesellschaft, priority 2014, published 2017).

Experiment [1] deals with T1, human phosphodiesterase 5 (PDE 5) (Homo sapiens, UniProt O76074).
T1 construct: PDE 5 preparations are obtained from human platelets by disruption; from tissue; host or cells: human platelets
The experiment is described as follows: Inhibition of human phosphodiesterase 5 (PDE 5). It counts as biochemical. Conditions: PDE 5 preparation from human platelets; in some cases means of individual determinations. As to the method: B-3. Inhibition of Human Phosphodiesterase 5 (PDE 5)
PDE 5 preparations are obtained from human platelets by disruption (Microfluidizer®, 800 bar, 3 passes), followed by centrifugation (75 000 g, 60 min, 4° C.) and ion exchange chromatography of the supernatant on a Mono Q 10/10 column (linear sodium chloride gradient, elution with a 0.2-0.3M solution of sodium chloride in buffer (20 mM Hepes pH 7.2, 2 mM magnesium chloride). Fractions having PDE 5 activity are combined (PDE 5 preparation) and stored at −80° C.
To determine their in vitro action on human PDE 5, the test substances are dissolved in 100% DMSO and serially diluted. Typically, dilution series (1:3) from 200 μM to 0.091 μM are prepared (resulting final concentrations in the test: 4 μM to 0.0018 μM). In each case 2 μl of the diluted substance solutions are placed into the wells of microtitre plates (Isoplate-96/200W; Perkin Elmer). Subsequently, 50 μl of a dilution of the above-described PDE 5 preparation are added. The dilution of the PDE 5 preparation is chosen such that during the later incubation less than 70% of the substrate are converted (typical dilution: 1:100; dilution buffer: 50 mM tris/hydrochloric acid pH 7.5, 8.3 mM magnesium chloride, 1.7 mM EDTA, 0.2% BSA). The substrate, [8-^3H] cyclic guanosine-3′,5′-monophosphate (1 μCi/μl; Perkin Elmer), is diluted 1:2000 with assay buffer (50 mM tris/hydrochloric acid pH 7.5, 8.3 mM magnesium chloride, 1.7 mM EDTA) to a concentration of 0.0005 μCi/μl. By addition of 50 μl (0.025 μCi) of the diluted substrate, the enzyme reaction is finally started. The test mixtures are incubated at room temperature for 60 min and the reaction is stopped by adding 25 μl of a suspension of 18 mg/ml yttrium scintillation proximity beads in water (phosphodiesterase beads for SPA assays, RPNQ 0150, Perkin Elmer). The microtitre plates are sealed with a film and left to stand at room temperature for 60 min. Subsequently, the plates are analysed for 30 s per well in a Microbeta scintillation counter (Perkin Elmer). IC50 values are determined using the graphic plot of the substance concentration against percentage PDE 5 inhibition.

In experiment [2] the target is T2, recombinant guanylate cyclase reporter cell line (Rattus norvegicus, UniProt P19686+P20595).
T2 construct: expressed in transfected cells
T2 sequence (P19686 1-690): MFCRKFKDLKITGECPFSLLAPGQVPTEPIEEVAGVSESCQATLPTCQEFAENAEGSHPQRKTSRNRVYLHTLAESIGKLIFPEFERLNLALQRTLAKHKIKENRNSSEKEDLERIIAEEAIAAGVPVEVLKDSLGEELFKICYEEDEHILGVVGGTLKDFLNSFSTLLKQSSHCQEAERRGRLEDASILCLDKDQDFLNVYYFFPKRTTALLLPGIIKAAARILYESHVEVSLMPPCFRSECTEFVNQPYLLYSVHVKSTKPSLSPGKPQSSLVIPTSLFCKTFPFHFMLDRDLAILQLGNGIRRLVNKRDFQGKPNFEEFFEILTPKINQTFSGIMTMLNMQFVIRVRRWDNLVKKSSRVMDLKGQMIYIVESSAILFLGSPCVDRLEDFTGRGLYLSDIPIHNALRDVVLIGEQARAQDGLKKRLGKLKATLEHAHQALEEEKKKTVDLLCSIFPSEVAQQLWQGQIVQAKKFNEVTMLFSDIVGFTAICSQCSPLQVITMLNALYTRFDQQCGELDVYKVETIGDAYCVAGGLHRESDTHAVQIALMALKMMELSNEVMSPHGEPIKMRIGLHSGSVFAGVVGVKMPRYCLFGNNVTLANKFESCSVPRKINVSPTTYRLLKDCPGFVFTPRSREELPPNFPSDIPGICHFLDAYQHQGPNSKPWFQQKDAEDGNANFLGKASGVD
T2 sequence (P20595 1-619): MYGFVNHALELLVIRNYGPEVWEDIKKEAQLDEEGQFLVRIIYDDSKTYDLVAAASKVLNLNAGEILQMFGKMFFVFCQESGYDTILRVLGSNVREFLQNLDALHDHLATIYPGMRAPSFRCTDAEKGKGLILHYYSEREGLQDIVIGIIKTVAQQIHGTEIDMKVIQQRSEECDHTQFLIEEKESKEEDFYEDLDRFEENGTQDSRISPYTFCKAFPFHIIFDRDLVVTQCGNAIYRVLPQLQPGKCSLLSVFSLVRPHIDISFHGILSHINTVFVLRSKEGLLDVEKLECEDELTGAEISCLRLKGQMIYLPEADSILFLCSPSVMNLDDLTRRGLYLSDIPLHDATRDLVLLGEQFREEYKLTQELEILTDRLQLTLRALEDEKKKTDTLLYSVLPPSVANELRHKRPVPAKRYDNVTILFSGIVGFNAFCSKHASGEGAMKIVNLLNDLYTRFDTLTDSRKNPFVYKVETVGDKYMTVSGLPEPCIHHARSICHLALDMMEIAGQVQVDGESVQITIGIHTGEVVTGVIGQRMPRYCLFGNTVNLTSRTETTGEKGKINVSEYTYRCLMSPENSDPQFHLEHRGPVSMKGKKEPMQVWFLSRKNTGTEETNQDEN
The experiment is described as follows: Effect on a recombinant guanylate cyclase reporter cell line. It counts as cell-based. Conditions: MEC = minimum effective concentration; in some cases means of individual determinations. As to the method:
B-2. Effect on a Recombinant Guanylate Cyclase Reporter Cell Line
The cellular activity of the compounds of the invention is determined using a recombinant guanylate cyclase reporter cell line, as described in F. Wunder et al., Anal. Biochem. 2005, 339, 104-112. Representative values (MEC=minimum effective concentration) for the compounds of the invention are shown in the table below (Table 1B; in some cases as means of individual determinations): […]

With `CC1(C)C(=O)Nc2nc(-c3nn(Cc4ccccc4F)c4ncccc34)nc(C(=O)NC3CCCC3)c21` [Example 126, N-cyclopentyl-2-[1-(2-fluorobenzyl)-1H-pyrazolo[3,4-b]pyridin-3-yl]-5,5-dimethyl-6-oxo-6,7-dihydro-5H-pyrrolo[2,3-d]pyrimidine-4-carboxamide], in experiment [1], 6 nM corresponded to half-maximal inhibition (IC50). Also, the MEC in experiment [2] turned out to be 0.3 µM.
The corresponding values for `CC(C)(O)CNC(=O)c1nc(-c2nn(Cc3ccccc3F)c3ncccc23)nc2c1C(C)(C)C(=O)N2` [Example 25] are 2 nM and 0.3 µM.
On the same counts, the results for `CCCNC(=O)c1nc(-c2nn(Cc3ccccc3F)c3ncccc23)nc2c1C(C)(C)C(=O)N2` [Example 81, 2-[1-(2-fluorobenzyl)-1H-pyrazolo[3,4-b]pyridin-3-yl]-5,5-dimethyl-6-oxo-N-propyl-6,7-dihydro-5H-pyrrolo[2,3-d]pyrimidine-4-carboxamide] are 15 nM and 0.1 µM.
On the same counts, the results for `CCC(C)NC(=O)c1nc(-c2nn(Cc3ccccc3F)c3ncccc23)nc2c1C(C)(C)C(=O)N2` (racemic) [Example 63, rac-N-(butan-2-yl)-2-[1-(2-fluorobenzyl)-1H-pyrazolo[3,4-b]pyridin-3-yl]-5,5-dimethyl-6-oxo-6,7-dihydro-5H-pyrrolo[2,3-d]pyrimidine-4-carboxamide] are 11 nM and 0.1 µM.
As for `CC1(C)C(=O)Nc2nc(-c3nn(Cc4ccccc4F)c4ncc(F)cc34)nc(C(N)=O)c21` [Example 2, 2-[5-Fluoro-1-(2-fluorobenzyl)-1H-pyrazolo[3,4-b]pyridin-3-yl]-5,5-dimethyl-6-oxo-6,7-dihydro-5H-pyrrolo[2,3-d]pyrimidine-4-carboxamide], in experiment [1], the IC50 (in general, the concentration that gives 50% inhibition) amounted to 13 nM. The MEC in experiment [2] was 0.03 µM.
As to `Cc1nc2c(cc1F)c(-c1nc3c(c(C(N)=O)n1)C(C)(C(F)(F)F)C(=O)N3)nn2Cc1ncccc1F` (racemic) [Example 18, rac-2-{5-Fluoro-1-[(3-fluoropyridin-2-yl)methyl]-6-methyl-1H-pyrazolo[3,4-b]pyridin-3-yl}-5-methyl-6-oxo-5-(trifluoromethyl)-6,7-dihydro-5H-pyrrolo[2,3-d]pyrimidine-4-carboxamide], in experiment [1], the IC50 stood at 570 nM. Besides, in experiment [2], the MEC worked out at 0.3 µM.
In experiment [1], `CN(C(=O)c1nc(-c2nn(Cc3ccccc3F)c3ncc(F)cc23)nc2c1C(C)(C)C(=O)N2)C1CC1` [Example 52] showed a half-maximal inhibitory concentration (IC50) of 150 nM. Besides, the MEC in experiment [2] amounted to 0.01 µM.
In experiment [1], `CN(CC1CC1)C(=O)c1nc(-c2nn(Cc3ccccc3F)c3ncccc23)nc2c1C(C)(C)C(=O)N2` [Example 111, N-(cyclopropylmethyl)-2-[1-(2-fluorobenzyl)-1H-pyrazolo[3,4-b]pyridin-3-yl]-N,5,5-trimethyl-6-oxo-6,7-dihydro-5H-pyrrolo[2,3-d]pyrimidine-4-carboxamide] returned an IC50 of 710 nM. The MEC in experiment [2] was found to be 0.01 µM.
For the compound `Cc1nc2c(cc1F)c(-c1nc3c(c(C(N)=O)n1)C(C)(C(F)(F)F)C(=O)N3)nn2Cc1ccccc1F` (single isomer, unassigned; ent-2) [Example 13, ent-2-[5-fluoro-1-(2-fluorobenzyl)-6-methyl-1H-pyrazolo[3,4-b]pyridin-3-yl]-5-methyl-6-oxo-5-(trifluoromethyl)-6,7-dihydro-5H-pyrrolo[2,3-d]pyrimidine-4-carboxamide (enantiomer A)], in experiment [1], the IC50 is 600 nM. In addition, the MEC in experiment [2] came out at 0.1 µM.
On the same counts, the results for `CC1(C)C(=O)Nc2nc(-c3nn(Cc4ccccc4F)c4ncccc34)nc(C(=O)NC3CC3)c21` [Example 24, N-Cyclopropyl-2-[1-(2-fluorobenzyl)-1H-pyrazolo[3,4-b]pyridin-3-yl]-5,5-dimethyl-6-oxo-6,7-dihydro-5H-pyrrolo[2,3-d]pyrimidine-4-carboxamide] are 3.5 nM and 0.1 µM.
For the compound `CCC(C)CNC(=O)c1nc(-c2nn(Cc3ccccc3F)c3ncccc23)nc2c1C(C)(C)C(=O)N2` (racemic) [Example 125, rac-2-[1-(2-fluorobenzyl)-1H-pyrazolo[3,4-b]pyridin-3-yl]-5,5-dimethyl-N-(2-methylbutyl)-6-oxo-6,7-dihydro-5H-pyrrolo[2,3-d]pyrimidine-4-carboxamide], in experiment [1], the IC50 was 30 nM. Further, in experiment [2], the MEC was 0.3 µM.
The compound `CC1(C)C(=O)Nc2nc(-c3nn(Cc4ccccc4F)c4ncc(F)cc34)nc(C(=O)N3CCCC3)c21` (single isomer, unassigned) [Example 54] registered an IC50 in experiment [1] of 1200 nM. Moreover, the MEC in experiment [2] came out at 0.03 µM.
In experiment [1], `Cc1nc2c(cc1F)c(-c1nc3c(c(C(N)=O)n1)C(C)(C(F)(F)F)C(=O)N3)nn2Cc1cccc(F)c1F` (single isomer, unassigned; ent-2) [Example 10, ent-2-[1-(2,3-Difluorobenzyl)-5-fluoro-6-methyl-1H-pyrazolo[3,4-b]pyridin-3-yl]-5-methyl-6-oxo-5-(trifluoromethyl)-6,7-dihydro-5H-pyrrolo[2,3-d]pyrimidine-4-carboxamide (enantiomer A)] gave a half-maximal inhibitory concentration (IC50) of 110 nM. In addition, the MEC in experiment [2] turned out to be 0.3 µM.
In experiment [1], `CCC(=O)C(C)NC(=O)c1nc(-c2nn(Cc3ccccc3F)c3ncccc23)nc2c1C(C)(C)C(=O)N2` (racemic) [Example 66, rac-2-[1-(2-fluorobenzyl)-1H-pyrazolo[3,4-b]pyridin-3-yl]-5,5-dimethyl-6-oxo-N-(3-oxopentan-2-yl)-6,7-dihydro-5H-pyrrolo[2,3-d]pyrimidine-4-carboxamide] yielded an IC50 of 87 nM. In experiment [2], the MEC worked out at 0.3 µM.
The corresponding values for `CC1(C)C(=O)Nc2nc(-c3nn(Cc4ccccc4F)c4ncc(F)cc34)nc(C(=O)NC3(C#N)CC3)c21` [Example 31] are 10 nM and 0.1 µM.
`CC1(C)C(=O)Nc2nc(-c3nn(Cc4ccccc4F)c4cc(Cl)ccc34)nc(C(=O)N3CCCC3)c21` [Example 48] gave an IC50 in experiment [1] of 1100 nM. The MEC in experiment [2] was found to be 0.1 µM.
